Measured values: patent publication US20220280594A1, “APPLICATION OF POLYPEPTIDE OR DERIVATIVE THEREOF” (CHENGDU HUITAI BIOMEDICINE CO., LTD., priority 2019, published 2022)
Ends that are not written are not given here. PEG = not defined here

Key:
Format in all cases: cell-based
[1] = test system: human pancreatic cancer cells (PANC-1); experiment: transwell invasion assay, PANC-1 cells; conditions: PANC-1 transwell invasion, 10 μM, 24 hours; control group 727 ± 68
Excerpt: (§1) The Transwell chamber system was used in the transwell cell invasion experiment. The chamber has an upper layer and a lower layer, which are separated by an artificial semipermeable membrane in the middle. The upper surface of the semipermeable membrane is coated with a layer of artificial matrigel to simulate extracellular matrix. Cells that have invaded through the matrigel and semi-permeable membrane will attach to the lower surface of the semi-permeable membrane. The invasion ability is evaluated by counting the number of cells on the lower surface of the semi-permeable membrane. The number of cells that have invaded is negatively correlated with the inhibitory effect of the drug on the invasion ability of the tumor cells. Transwell invasion assay was performed as follows: tumor cells were cultured in vitro, cells in logarithmic growth phase were collected, and cell suspension was prepared with fresh serum-free medium at a density of 2-3×10^5 cells/mL. Cells were inoculated, 100 μL/well cell suspension (serum-free medium) in the upper chamber and 600 μL/well complete culture medium in the lower chamber. After incubated in 37° C., 5% CO2 incubator for 4-5 hours, serum-free medium (100 μL/well) was added to the control group, and serum-free medium containing polypeptide or derivative thereof (N1-N54) was added to the upper chamber of the treatment group (100 μL/well), the final concentration of the peptide or derivative thereof in the upper chamber was 10 μM. The cells were incubated continuously for 24 hours, and then fixed with methanol and stained with crystal violet. Images were taken under a microscope and the number of invaded cells was counted with ImageJ.
This example was the transwell cell invasion experiment to evaluate the inhibitory effect of the polypeptide or derivative thereof (N1-N54) on the invasion ability of human pancreatic cancer cells (PANC-1). The experimental method was as described in Example 4.

[2] = test system: human liver adenocarcinoma cells (SK-HEP-1); experiment: transwell invasion assay, SK-HEP-1 cells; conditions: SK-HEP-1 transwell invasion, 10 μM, 24 hours; control group 767 ± 91
Excerpt: as §1
This example was a transwell cell invasion experiment to evaluate the inhibitory effect of the polypeptide or derivative thereof (N1-N54) on the invasion ability of human liver adenocarcinoma cells (SK-HEP-1). The experimental method was as described in Example 4.

[3] = test system: human breast cancer cells (MDA-MB-231); experiment: scratch assay, migration of MDA-MB-231 cells; conditions: MDA-MB-231, 10 μM, 48 hours; control group 36.19 ± 5.15
Experimental: (§2) In the scratch assay, the cell migration rate was negatively correlated with the inhibitory effect of the drug component on tumor cell migration ability. The cell migration inhibition experiment was described as follows: tumor cells were cultured in vitro, cells in logarithmic growth phase were collected and seeded evenly in a 24-well plate at a density of 1-2×10^5 cells/well; the cells were cultured in a cell incubator until a monolayer was formed; a scratch tool was used to make a “-” (straight) scratch on the monolayer of cells; the cells were washed 1-3 times with PBS, and a medium (with 2% fetal bovine serum) containing specific test components was added to the culture. Experimental grouping: PBS control group; polypeptide or derivative thereof treatment group (N1-N54), 10 μM. Three independent parallel wells were set up in each group, and the cells were cultured continuously in a cell incubator for 48 hours. […] At least 3 representative images for each well were taken. ImageJ software was used to count the migration distance of the cells, and the cell migration rate was calculated as: cell migration rate (%)=(width of original scratch−width of current scratch)/width of original scratch×100.
This example was a scratch assay to evaluate the inhibitory effect of the polypeptide or derivative thereof (N1-N54) on the migration ability of human breast cancer cells (MDA-MB-231). The experimental method was as described in Example 2.

[4] = test system: human melanoma cells (A375); experiment: scratch assay, migration of A375 cells; conditions: A375, 10 μM, 48 hours; control group 44.03 ± 6.21
Experimental: as §2
This example was a scratch assay to evaluate the inhibitory effect of the polypeptide or derivative thereof (N1-N54) on the migration ability of human melanoma cells (A375). The experimental method was as described in Example 2.

[5] = test system: human pancreatic cancer cells (PANC-1); experiment: scratch assay, migration of PANC-1 cells; conditions: PANC-1, 10 μM, 48 hours; control group 66.65 ± 3.37
Experimental: as §2
This example was a scratch assay to evaluate the inhibitory effect of the polypeptide or derivative thereof (N1-N54) on the migration ability of human pancreatic cancer cells (PANC-1). The experimental method was as described in Example 2.

[6] = test system: human pharyngeal squamous-cell carcinoma cells (Fadu); experiment: scratch assay, migration of Fadu cells; conditions: 10 μM, 48 hours, control group 28.76 ± 4.08
Experimental: as §2
This example was a scratch assay to evaluate the inhibitory effect of the polypeptide or derivative thereof (N1-N54) on the migration ability of human pharyngeal squamous-cell carcinoma cells (Fadu). The experimental method was as described in Example 2.

[7] = test system: human colon cancer cells (HCT-116); experiment: scratch assay, migration of HCT-116 cells; conditions: HCT-116, 10 μM, 48 hours; control group 47.78 ± 6.07
Experimental: as §2
This example was a scratch assay to evaluate the inhibitory effect of the polypeptide or derivative thereof (N1-N54) on the migration ability of human colon cancer cells (HCT-116). The experimental method was as described in Example 2.

[8] = test system: human breast cancer cells (MCF-7); experiment: scratch assay, migration of MCF-7 cells; conditions: MCF-7, 10 μM, 48 hours; control group 30.97 ± 1.79
Experimental: as §2
This example was a scratch assay to evaluate the inhibitory effect of the polypeptide or derivative thereof (N1-N54) on the migration ability of human breast cancer cells (MCF-7). The experimental method was as described in Example 2.

[9] = test system: human liver cancer cells (HepG2); experiment: scratch assay, migration of HepG2 cells; conditions: HepG2, 10 μM, 48 hours; control group 71.01 ± 6.63
Experimental: as §2
This example was a scratch assay to evaluate the inhibitory effect of the polypeptide or derivative thereof (N1-N54) on the migration ability of human liver cancer cells (HepG2). The experimental method was as described in Example 2.

[10] = test system: human prostate cancer cells (22RV1); experiment: scratch assay, migration of 22RV1 cells; conditions: 22RV1, 10 μM, 48 hours; control group 25.41 ± 5.01
Experimental: as §2
This example was a scratch assay to evaluate the inhibitory effect of the polypeptide or derivative thereof (N1-N54) on the migration ability of human prostate cancer cells (22RV1). The experimental method was as described in Example 2.

| Substance | Number of cells (mean ± SD, P), invaded cells [1] | Number of cells (mean ± SD, P), invaded cells [2] | Migration rate (%) (mean ± SD, P) [3] | Migration rate (%) (mean ± SD, P) [4] | Migration rate (%) (mean ± SD, P) [5] | Migration rate (%) (mean ± SD, P) [6] | Migration rate (%) (mean ± SD, P) [7] | Migration rate (%) (mean ± SD, P) [8] | Migration rate (%) (mean ± SD, P) [9] | Migration rate (%) (mean ± SD, P) [10] |
| --- | --- | --- | --- | --- | --- | --- | --- | --- | --- | --- |
| N1: polypeptide with the amino acid sequence set forth in SEQ ID NO: 1 (YRVRFLAKENVTQDAEDN) | 83 ± 26,**** | 343 ± 38,*** | 21.83 ± 3.73,* % | 8.49 ± 2.99,*** % | 18.89 ± 6.68,*** % | 5.68 ± 2.86,*** % | 10.27 ± 3.64,*** % | 11.18 ± 2.89,** % | 17.42 ± 7.70,*** % | 7.26 ± 3.36,** % |
| N42: SEQ ID NO: 1 with deletion of positions 1-5 and 15-18, PEG at the amino terminal, one amino acid added at the carboxyl terminal ({PEG}-LAKENVTQDR; reading uncertain) | 399 ± 21,*** | 149 ± 29,**** | 17.91 ± 3.66,** % | 8.92 ± 2.25,*** % | 24.26 ± 7.91,** % | 18.63 ± 2.79,* % | 6.75 ± 2.33,*** % | 10.04 ± 2.28,** % | 30.92 ± 4.57,** % | 5.89 ± 1.02,** % |
| N11: SEQ ID NO: 1 with deletion of positions 15-18 and 1-3 and PEG modification at the amino terminal ({PEG}-RFLAKENVTQD; reading uncertain) | 66 ± 14,**** | 398 ± 36,*** | 10.68 ± 5.72,** % | 11.54 ± 2.23,*** % | 28.37 ± 7.57,** % | 19 ± 5.37,* % | 13.81 ± 2.92,*** % | 9.34 ± 3.74,** % | 53.36 ± 5.49,* % | 9.43 ± 2.23,** % |
| N38: SEQ ID NO: 1 with one amino acid added at each terminal and PEG modification at the carboxyl terminal (FYRVRFLAKENVTQDAEDNC-{PEG}; reading uncertain) | 2.62 ± 21,**** | 249 ± 42,**** | 18.99 ± 3.25,* % | 15.57 ± 3.65,*** % | 24.87 ± 5.81,*** % | 18.18 ± 3.61,* % | 5.97 ± 2.44,*** % | 6.93 ± 2.24,** % | 12.81 ± 7.32,*** % | 7.73 ± 1.58,** % |
| N20: SEQ ID NO: 1 with addition of one amino acid at the amino terminal and deletion of position 18 (RYRVRFLAKENVTQDAED) | 273 ± 12,**** | 242 ± 22,**** | 20.18 ± 3.38,* % | 14.61 ± 3.12,*** % | 41.56 ± 6.68,* % | 15.21 ± 4.90,* % | 8.17 ± 1.07,*** % | 13.73 ± 4.97,** % | 14.22 ± 6.12,*** % | 4.88 ± 1.48,** % |
